Measured values reported in the kinase profiling compilation of Christmann-Franck et al. (2016).

Experiments:
Experiment in all cases: KINOMEscan competition binding
Details in all cases: compound 10.0 µM
CHEK1 (human) = CHEK1 (human) (UniProt O14757)
CDK15 (human) = CDK15 (human) (UniProt Q96Q40)
MARK4 (human) = MARK4 (human) (UniProt Q96L34)
SLK (human) = SLK (human) (UniProt Q9H2G2)
MAP4K5 (human) = MAP4K5 (human) (UniProt Q9Y4K4)
EPHA4 (human) = EPHA4 (human) (UniProt P54764)
TAOK1 (human) = TAOK1 (human) (UniProt Q7L7X3)
DMPK (human) = DMPK (human) (UniProt Q09013)
MAP3K2 (human) = MAP3K2 (human) (UniProt Q9Y2U5)
CSNK1A1L (human) = CSNK1A1L (human) (UniProt Q8N752)
SYK (human) = SYK (human) (UniProt P43405)
MAP3K13 (human) = MAP3K13 (human) (UniProt O43283)
PLK2 (human) = PLK2 (human) (UniProt Q9NYY3)
PLK2 (human), sequence (Q9NYY3 whole entry, looked up): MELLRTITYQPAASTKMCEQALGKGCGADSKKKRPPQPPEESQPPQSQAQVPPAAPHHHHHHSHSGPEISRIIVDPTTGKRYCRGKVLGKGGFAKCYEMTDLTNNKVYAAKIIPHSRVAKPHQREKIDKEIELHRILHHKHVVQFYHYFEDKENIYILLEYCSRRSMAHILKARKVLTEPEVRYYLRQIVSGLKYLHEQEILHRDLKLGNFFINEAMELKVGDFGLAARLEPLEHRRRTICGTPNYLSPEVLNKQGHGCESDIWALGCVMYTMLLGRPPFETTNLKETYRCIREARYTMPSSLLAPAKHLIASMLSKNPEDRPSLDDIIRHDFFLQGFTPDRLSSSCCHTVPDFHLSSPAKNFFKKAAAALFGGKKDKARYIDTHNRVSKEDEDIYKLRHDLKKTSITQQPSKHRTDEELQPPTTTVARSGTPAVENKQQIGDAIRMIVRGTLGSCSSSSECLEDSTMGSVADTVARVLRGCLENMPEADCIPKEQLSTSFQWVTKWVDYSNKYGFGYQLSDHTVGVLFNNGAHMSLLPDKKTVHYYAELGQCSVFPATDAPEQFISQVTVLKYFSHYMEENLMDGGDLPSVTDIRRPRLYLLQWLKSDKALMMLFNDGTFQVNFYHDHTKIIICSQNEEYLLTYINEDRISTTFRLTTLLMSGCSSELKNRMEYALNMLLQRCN

CDC42BPG (human) = CDC42BPG (human) (UniProt Q6DT37)
RPS6KA1 KD2 (human) = RPS6KA1 KD2 (human) (UniProt Q15418)
RPS6KA1 KD2 (human), sequence (Q15418 whole entry, looked up): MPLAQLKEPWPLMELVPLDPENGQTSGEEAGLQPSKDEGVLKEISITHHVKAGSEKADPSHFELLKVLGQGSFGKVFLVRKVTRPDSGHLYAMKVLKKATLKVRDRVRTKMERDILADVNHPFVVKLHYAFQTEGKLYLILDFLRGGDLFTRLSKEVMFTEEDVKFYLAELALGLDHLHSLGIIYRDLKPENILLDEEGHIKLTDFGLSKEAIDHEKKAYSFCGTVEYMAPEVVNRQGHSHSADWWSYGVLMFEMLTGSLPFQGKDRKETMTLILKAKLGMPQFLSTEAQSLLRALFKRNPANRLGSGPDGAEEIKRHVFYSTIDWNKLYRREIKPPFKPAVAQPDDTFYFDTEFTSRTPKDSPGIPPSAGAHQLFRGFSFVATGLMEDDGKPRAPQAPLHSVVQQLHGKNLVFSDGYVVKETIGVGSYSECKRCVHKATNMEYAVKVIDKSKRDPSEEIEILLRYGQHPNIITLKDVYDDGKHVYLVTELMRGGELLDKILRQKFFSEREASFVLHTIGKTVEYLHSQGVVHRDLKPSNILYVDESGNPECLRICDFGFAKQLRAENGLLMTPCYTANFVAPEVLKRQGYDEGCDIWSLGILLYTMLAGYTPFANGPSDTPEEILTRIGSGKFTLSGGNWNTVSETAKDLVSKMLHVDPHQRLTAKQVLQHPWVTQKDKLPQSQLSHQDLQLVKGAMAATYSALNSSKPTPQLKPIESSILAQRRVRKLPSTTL

AKT1 (human) = AKT1 (human) (UniProt P31749)
GRK4 (human) = GRK4 (human) (UniProt P32298)
MAPKAPK2 (human) = MAPKAPK2 (human) (UniProt P49137)
CLK2 (human) = CLK2 (human) (UniProt P49760)
MAP3K15 (human) = MAP3K15 (human) (UniProt Q6ZN16)
EPHA3 (human) = EPHA3 (human) (UniProt P29320)
NLK (human) = NLK (human) (UniProt Q9UBE8)
NLK (human), sequence (Q9UBE8 whole entry, looked up): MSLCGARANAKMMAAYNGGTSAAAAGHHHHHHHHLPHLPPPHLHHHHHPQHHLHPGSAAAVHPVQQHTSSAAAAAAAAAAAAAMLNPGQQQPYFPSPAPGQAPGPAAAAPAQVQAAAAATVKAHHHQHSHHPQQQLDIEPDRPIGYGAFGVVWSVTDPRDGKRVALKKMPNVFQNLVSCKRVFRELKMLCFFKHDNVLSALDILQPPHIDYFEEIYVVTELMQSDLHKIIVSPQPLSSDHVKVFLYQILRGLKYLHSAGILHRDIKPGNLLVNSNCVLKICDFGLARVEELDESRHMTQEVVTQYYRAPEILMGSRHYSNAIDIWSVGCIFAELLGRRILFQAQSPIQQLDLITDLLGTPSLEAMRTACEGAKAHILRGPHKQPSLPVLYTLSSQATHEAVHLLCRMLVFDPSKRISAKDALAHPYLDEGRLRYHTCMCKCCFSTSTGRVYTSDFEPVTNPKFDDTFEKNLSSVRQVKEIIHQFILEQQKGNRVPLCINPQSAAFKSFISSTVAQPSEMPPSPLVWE

ACVR1B (human) = ACVR1B (human) (UniProt P36896)
PIP5K1C (human) = PIP5K1C (human) (UniProt O60331)
NTRK3 (human) = NTRK3 (human) (UniProt Q16288)
CDC2L2 (human) = CDC2L2 (human) (UniProt Q9UQ88)
ERBB3 (human) = ERBB3 (human) (UniProt P21860)
EPHB3 (human) = EPHB3 (human) (UniProt P54753)
STK25 (human) = STK25 (human) (UniProt O00506)
[1] = test system: RET (human), P07949 [M918T]
MYLK (human) = MYLK (human) (UniProt Q15746)
MYLK (human), sequence (Q15746 whole entry, looked up): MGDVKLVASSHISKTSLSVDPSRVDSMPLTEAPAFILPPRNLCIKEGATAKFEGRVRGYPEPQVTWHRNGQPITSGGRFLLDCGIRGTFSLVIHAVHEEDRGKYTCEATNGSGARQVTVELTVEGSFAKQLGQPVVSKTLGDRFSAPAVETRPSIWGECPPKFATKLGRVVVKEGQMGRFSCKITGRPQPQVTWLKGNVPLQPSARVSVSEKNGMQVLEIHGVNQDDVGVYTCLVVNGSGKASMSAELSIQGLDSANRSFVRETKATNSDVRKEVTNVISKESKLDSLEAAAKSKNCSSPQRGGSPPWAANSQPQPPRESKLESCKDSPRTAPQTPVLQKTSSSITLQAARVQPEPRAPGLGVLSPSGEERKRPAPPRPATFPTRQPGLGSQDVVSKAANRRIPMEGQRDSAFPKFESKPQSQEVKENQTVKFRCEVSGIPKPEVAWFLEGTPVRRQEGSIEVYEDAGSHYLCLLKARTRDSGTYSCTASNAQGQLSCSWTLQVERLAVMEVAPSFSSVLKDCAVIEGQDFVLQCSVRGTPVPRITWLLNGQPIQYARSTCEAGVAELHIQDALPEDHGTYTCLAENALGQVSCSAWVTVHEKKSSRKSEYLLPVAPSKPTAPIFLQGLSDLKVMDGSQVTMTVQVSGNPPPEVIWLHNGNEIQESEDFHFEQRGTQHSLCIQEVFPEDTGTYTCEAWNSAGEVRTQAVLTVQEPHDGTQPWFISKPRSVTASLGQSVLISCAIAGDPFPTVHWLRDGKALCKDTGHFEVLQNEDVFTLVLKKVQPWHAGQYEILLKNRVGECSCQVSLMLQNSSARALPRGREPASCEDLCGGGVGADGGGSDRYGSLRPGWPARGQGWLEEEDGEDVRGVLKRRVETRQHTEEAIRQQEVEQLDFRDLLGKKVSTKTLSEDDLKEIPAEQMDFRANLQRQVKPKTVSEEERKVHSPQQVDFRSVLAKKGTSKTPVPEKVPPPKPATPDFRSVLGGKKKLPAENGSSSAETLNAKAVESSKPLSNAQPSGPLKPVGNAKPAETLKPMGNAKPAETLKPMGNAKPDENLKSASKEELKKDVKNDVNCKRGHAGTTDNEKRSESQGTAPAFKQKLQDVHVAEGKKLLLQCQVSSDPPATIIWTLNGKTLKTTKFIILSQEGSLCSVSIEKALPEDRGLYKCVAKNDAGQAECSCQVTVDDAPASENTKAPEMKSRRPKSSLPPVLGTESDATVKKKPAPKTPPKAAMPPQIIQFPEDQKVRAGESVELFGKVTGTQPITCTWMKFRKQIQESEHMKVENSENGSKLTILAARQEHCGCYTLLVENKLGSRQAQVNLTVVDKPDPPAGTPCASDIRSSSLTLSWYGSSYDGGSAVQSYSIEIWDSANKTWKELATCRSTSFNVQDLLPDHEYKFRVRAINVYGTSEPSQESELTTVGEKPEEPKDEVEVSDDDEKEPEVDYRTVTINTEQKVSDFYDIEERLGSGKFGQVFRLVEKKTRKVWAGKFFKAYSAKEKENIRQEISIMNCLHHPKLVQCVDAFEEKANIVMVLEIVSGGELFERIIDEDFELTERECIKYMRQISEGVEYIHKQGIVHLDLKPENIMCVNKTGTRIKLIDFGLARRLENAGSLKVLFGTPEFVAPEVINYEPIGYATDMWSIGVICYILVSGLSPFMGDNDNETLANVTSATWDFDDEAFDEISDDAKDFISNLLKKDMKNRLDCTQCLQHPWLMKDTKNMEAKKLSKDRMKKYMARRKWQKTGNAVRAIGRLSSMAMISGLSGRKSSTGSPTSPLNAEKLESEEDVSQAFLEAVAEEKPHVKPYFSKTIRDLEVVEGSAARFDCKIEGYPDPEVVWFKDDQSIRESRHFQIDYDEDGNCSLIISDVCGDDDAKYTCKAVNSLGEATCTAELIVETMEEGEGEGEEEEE

IKBKB (human) = IKBKB (human) (UniProt O14920)
IKBKB (human), sequence (O14920 whole entry, looked up): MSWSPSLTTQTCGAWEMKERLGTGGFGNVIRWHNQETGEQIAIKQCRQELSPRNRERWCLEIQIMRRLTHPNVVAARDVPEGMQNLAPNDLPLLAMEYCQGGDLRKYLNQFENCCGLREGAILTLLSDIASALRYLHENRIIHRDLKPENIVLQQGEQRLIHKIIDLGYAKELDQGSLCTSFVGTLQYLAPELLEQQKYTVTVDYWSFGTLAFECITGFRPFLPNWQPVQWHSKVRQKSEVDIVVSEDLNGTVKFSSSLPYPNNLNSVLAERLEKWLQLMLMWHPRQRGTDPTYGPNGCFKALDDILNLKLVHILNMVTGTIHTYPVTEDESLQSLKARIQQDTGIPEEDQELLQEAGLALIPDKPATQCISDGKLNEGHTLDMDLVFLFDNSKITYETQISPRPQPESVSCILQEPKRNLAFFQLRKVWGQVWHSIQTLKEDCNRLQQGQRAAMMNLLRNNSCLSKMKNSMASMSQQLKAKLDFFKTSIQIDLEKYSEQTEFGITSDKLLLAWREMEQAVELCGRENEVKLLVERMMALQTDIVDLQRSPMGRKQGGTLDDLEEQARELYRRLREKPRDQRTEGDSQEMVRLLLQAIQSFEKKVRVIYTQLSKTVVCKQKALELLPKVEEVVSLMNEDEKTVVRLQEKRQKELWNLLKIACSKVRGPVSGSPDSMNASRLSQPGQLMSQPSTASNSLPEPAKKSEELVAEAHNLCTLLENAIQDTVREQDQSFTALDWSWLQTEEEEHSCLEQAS

RIOK1 (human) = RIOK1 (human) (UniProt Q9BRS2)
FGFR3 (human) = FGFR3 (human) (UniProt P22607)
PIK3CD (human) = PIK3CD (human) (UniProt O00329)
STK35 (human) = STK35 (human) (UniProt Q8TDR2)
FLT1 (human) = FLT1 (human) (UniProt P17948)
[2] = test system: ABL1 (human), P00519 [Y253F]
MAPK7 (human) = MAPK7 (human) (UniProt Q13164)
CDKL5 (human) = CDKL5 (human) (UniProt O76039)

CHEK1 (human), sequence (O14757 whole entry, looked up): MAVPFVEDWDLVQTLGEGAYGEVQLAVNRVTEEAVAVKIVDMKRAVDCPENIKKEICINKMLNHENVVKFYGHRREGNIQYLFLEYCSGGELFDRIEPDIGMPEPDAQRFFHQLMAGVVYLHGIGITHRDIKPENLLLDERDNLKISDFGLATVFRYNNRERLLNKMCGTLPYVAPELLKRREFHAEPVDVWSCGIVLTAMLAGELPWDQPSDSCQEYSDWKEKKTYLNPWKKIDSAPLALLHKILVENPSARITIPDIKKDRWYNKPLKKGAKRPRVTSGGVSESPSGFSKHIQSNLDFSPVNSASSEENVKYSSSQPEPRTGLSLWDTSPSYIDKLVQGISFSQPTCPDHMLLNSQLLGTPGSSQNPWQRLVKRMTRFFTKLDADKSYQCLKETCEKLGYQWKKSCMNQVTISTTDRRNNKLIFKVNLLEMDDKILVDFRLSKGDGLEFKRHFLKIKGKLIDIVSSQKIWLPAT

SMILES	kinase still bound, per cent of control (CHEK1 (human))	kinase still bound, per cent of control (CDK15 (human))	kinase still bound, per cent of control (MARK4 (human))	kinase still bound, per cent of control (SLK (human))	kinase still bound, per cent of control (MAP4K5 (human))	kinase still bound, per cent of control (EPHA4 (human))	kinase still bound, per cent of control (TAOK1 (human))	kinase still bound, per cent of control (DMPK (human))	kinase still bound, per cent of control (MAP3K2 (human))	kinase still bound, per cent of control (CSNK1A1L (human))	kinase still bound, per cent of control (SYK (human))	kinase still bound, per cent of control (MAP3K13 (human))	kinase still bound, per cent of control (PLK2 (human))	kinase still bound, per cent of control (CDC42BPG (human))	kinase still bound, per cent of control (RPS6KA1 KD2 (human))	kinase still bound, per cent of control (AKT1 (human))	kinase still bound, per cent of control (GRK4 (human))	kinase still bound, per cent of control (MAPKAPK2 (human))	kinase still bound, per cent of control (CLK2 (human))	kinase still bound, per cent of control (MAP3K15 (human))	other results
C=CC(=O)Nc1cc(-n2c(=O)ccc3cnc4ccc(-c5cn[nH]c5)cc4c32)ccc1C	100%	49%	64%	100%	93%	97%	22%	59%	88%	90%	100%	84%	89%	100%	94%	89%	84%	100%	1.6%	56%	kinase still bound, per cent of control (EPHA3 (human)): 100%; kinase still bound, per cent of control (NLK (human)): 63%; kinase still bound, per cent of control (ACVR1B (human)): 100%; kinase still bound, per cent of control (PIP5K1C (human)): 42%; kinase still bound, per cent of control (NTRK3 (human)): 93%; kinase still bound, per cent of control (CDC2L2 (human)): 100%; kinase still bound, per cent of control (ERBB3 (human)): 94%; kinase still bound, per cent of control (EPHB3 (human)): 100%; kinase still bound, per cent of control (STK25 (human)): 70%; kinase still bound, per cent of control [1]: 51%; kinase still bound, per cent of control (MYLK (human)): 70%; kinase still bound, per cent of control (IKBKB (human)): 73%; kinase still bound, per cent of control (RIOK1 (human)): 53%; kinase still bound, per cent of control (FGFR3 (human)): 89%; kinase still bound, per cent of control (PIK3CD (human)): 27%; kinase still bound, per cent of control (STK35 (human)): 98%; kinase still bound, per cent of control (FLT1 (human)): 100%; kinase still bound, per cent of control [2]: 71%; kinase still bound, per cent of control (MAPK7 (human)): 98%; kinase still bound, per cent of control (CDKL5 (human)): 3.3%
COc1cc2ncnc(-n3nc(-c4ccccn4)nc3N)c2cc1OC	100%	88%	75%	28%	45%	34%	3.2%	100%	33%	32%	24%	96%	13%	96%	14%	100%	39%	100%	1.8%	54%	kinase still bound, per cent of control (EPHA3 (human)): 11%; kinase still bound, per cent of control (NLK (human)): 6.6%; kinase still bound, per cent of control (ACVR1B (human)): 14%; kinase still bound, per cent of control (PIP5K1C (human)): 5%; kinase still bound, per cent of control (NTRK3 (human)): 100%; kinase still bound, per cent of control (CDC2L2 (human)): 100%; kinase still bound, per cent of control (ERBB3 (human)): 9%; kinase still bound, per cent of control (EPHB3 (human)): 56%; kinase still bound, per cent of control (STK25 (human)): 33%; kinase still bound, per cent of control [1]: 14%; kinase still bound, per cent of control (MYLK (human)): 0.8%; kinase still bound, per cent of control (IKBKB (human)): 45%; kinase still bound, per cent of control (RIOK1 (human)): 29%; kinase still bound, per cent of control (FGFR3 (human)): 84%; kinase still bound, per cent of control (PIK3CD (human)): 5%; kinase still bound, per cent of control (STK35 (human)): 24%; kinase still bound, per cent of control (FLT1 (human)): 48%; kinase still bound, per cent of control [2]: 0.3%; kinase still bound, per cent of control (MAPK7 (human)): 83%; kinase still bound, per cent of control (CDKL5 (human)): 0.3%
O=C(Nc1cccc(Nc2ncc(Br)c(NCCc3cnc[nH]3)n2)c1)N1CCCC1	0.4%	25%	0%	0.35%	9.6%	100%	0.25%	9.1%	0.25%	32%	0.95%	9.9%	11%	49%	13%	100%	5.6%	100%	2.2%	50%	kinase still bound, per cent of control (EPHA3 (human)): 21%; kinase still bound, per cent of control (NLK (human)): 100%; kinase still bound, per cent of control (ACVR1B (human)): 61%; kinase still bound, per cent of control (PIP5K1C (human)): 22%; kinase still bound, per cent of control (NTRK3 (human)): 2.6%; kinase still bound, per cent of control (CDC2L2 (human)): 52%; kinase still bound, per cent of control (ERBB3 (human)): 41%; kinase still bound, per cent of control (EPHB3 (human)): 100%; kinase still bound, per cent of control (STK25 (human)): 30%; kinase still bound, per cent of control [1]: 0.05%; kinase still bound, per cent of control (MYLK (human)): 34%; kinase still bound, per cent of control (IKBKB (human)): 8.4%; kinase still bound, per cent of control (RIOK1 (human)): 0%; kinase still bound, per cent of control (FGFR3 (human)): 1%; kinase still bound, per cent of control (PIK3CD (human)): 84%; kinase still bound, per cent of control (STK35 (human)): 67%; kinase still bound, per cent of control (FLT1 (human)): 0.6%; kinase still bound, per cent of control [2]: 0.1%; kinase still bound, per cent of control (MAPK7 (human)): 62%; kinase still bound, per cent of control (CDKL5 (human)): 1.8%
